Laboratory results published in patent US8871753B2, “Macrocyclic compounds and their use as kinase inhibitors” (Incyte Corporation, priority 2008, dated 2014).
Counter-ions that a name gives are not always drawn. Like-named read-outs stand apart in the source and are kept apart here.

Experiments:
Format in all cases: biochemical
[1] = target: T1, human JAK1 (a.a. 837-1142) (Homo sapiens, UniProt P23458); test: In vitro JAK kinase assay (HTRF, phosphorylation of a biotinylated peptide), JAK1; conditions: read-out: JAK1 IC50
T1 construct: human JAK1 (a.a. 837-1142); His tag (N); made in house; host or cells: insect cells (baculovirus)
How it was run: (§1)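 Kinase reactions ran at room temperature for 1 h with ATP matched per isoform (JAK1 90 μM, JAK2 30 μM, JAK3 3 μM). After an EDTA stop, the phosphorylated biotin-peptide was read by HTRF using Eu-Py20 and SA-APC after 40 min binding.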

[2] = target: T2, Recombinant Human Anaplastic Lymphoma Kinase (Homo sapiens, UniProt Q9UM73); test: ALK HTRF kinase assay
T2 construct: purchased Invitrogen, Carlsbad, Calif
How it was run: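 Biotinylated peptide substrate, recombinant human ALK; detection via europium-chelate antibody to phosphotyrosine paired with streptavidin-APC. Potency expressed as IC50 from four-parameter curve fitting.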

[3] = target: T3, human JAK2 (a.a. 828-1132) (Homo sapiens, UniProt O60674); test: In vitro JAK kinase assay (HTRF, phosphorylation of a biotinylated peptide), JAK2
T3 construct: JAK2 (a.a. 828-1132); His tag (N); made in house; host or cells: insect cells (baculovirus)
How it was run: as §1

[4] = target: TYK2 (Homo sapiens, UniProt P29597); test: TYK2 kinase inhibition (Table A1)
[5] = target: T4, human JAK3 (a.a. 781-1124) (Homo sapiens, UniProt P52333); test: In vitro JAK kinase assay (HTRF, phosphorylation of a biotinylated peptide), JAK3
T4 construct: JAK3 (a.a. 781-1124); His tag (N); made in house; host or cells: insect cells (baculovirus)
How it was run: as §1

[6] = compound at a concentration of 500 nM or 1 mM (not specified), cells shown as percentage
[7] = Table B1, cells without percent sign
[8] = method AA1 (90 μM ATP) or AA2 (1000 μM ATP), not stated per value
[9] = compound at 500 nM or 1 mM, 90 μM ATP
[10] = method AA1 (30 μM ATP) or AA2 (1000 μM ATP), not stated per value
[11] = method AA1 (3 μM ATP) or AA2 (1000 μM ATP), not stated per value

T4 sequence (P52333 781-1124): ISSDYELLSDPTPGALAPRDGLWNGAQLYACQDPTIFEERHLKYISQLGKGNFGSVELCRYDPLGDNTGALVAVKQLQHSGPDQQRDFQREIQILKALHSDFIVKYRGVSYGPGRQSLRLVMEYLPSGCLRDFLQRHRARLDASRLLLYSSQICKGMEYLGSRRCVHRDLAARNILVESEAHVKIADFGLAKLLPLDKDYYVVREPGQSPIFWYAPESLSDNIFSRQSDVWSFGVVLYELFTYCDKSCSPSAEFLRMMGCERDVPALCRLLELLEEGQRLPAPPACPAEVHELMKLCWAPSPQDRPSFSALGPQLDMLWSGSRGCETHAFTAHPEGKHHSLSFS
T3 sequence (O60674 828-1132): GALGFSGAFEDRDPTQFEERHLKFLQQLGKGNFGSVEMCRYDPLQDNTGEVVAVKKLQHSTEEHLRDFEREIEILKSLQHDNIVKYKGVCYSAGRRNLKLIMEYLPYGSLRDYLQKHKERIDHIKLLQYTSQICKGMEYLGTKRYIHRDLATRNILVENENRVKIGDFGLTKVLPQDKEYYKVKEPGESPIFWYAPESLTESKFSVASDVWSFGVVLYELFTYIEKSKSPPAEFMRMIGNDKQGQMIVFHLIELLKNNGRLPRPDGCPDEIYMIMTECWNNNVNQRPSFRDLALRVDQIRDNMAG
T1 sequence (P23458 849-1154): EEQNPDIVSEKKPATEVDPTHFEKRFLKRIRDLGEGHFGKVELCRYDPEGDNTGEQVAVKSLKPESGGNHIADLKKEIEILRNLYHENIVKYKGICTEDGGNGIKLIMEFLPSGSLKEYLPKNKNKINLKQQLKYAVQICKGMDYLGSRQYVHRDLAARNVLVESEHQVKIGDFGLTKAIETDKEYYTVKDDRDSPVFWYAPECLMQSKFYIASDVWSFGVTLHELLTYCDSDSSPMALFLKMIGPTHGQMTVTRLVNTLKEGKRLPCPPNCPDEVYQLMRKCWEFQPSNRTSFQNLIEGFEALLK
Sequence of TYK2 (P29597 whole entry): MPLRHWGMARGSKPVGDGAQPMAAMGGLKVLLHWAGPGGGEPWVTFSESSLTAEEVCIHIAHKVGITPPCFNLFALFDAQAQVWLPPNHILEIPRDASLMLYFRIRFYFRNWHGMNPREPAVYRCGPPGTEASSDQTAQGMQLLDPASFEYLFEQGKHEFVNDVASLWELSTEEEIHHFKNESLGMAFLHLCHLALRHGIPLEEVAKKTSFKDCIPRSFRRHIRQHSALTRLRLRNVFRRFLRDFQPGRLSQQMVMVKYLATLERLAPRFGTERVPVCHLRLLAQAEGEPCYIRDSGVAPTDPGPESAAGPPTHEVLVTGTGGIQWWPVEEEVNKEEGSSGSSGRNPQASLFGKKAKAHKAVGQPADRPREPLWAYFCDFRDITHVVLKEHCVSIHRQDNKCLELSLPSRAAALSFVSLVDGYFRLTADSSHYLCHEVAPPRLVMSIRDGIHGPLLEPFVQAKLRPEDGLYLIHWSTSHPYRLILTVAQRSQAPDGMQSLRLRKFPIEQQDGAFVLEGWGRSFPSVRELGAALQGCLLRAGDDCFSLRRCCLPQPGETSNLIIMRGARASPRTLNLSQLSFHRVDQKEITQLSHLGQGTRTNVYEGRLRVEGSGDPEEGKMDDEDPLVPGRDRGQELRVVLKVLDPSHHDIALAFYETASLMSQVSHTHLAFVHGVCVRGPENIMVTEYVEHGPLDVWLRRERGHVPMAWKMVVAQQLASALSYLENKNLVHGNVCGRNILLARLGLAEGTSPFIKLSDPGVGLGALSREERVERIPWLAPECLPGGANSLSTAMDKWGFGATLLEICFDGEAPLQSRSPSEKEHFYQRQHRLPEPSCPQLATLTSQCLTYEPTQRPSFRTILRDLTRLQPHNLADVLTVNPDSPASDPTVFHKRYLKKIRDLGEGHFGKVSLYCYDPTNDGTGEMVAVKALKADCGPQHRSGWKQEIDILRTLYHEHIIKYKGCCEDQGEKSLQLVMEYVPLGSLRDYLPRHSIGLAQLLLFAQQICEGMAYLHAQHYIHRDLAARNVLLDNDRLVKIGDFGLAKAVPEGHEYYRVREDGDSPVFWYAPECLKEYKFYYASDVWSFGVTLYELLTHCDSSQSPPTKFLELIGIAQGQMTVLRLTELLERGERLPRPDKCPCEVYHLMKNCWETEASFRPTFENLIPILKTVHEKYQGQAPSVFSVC
T2 sequence (Q9UM73 19-1620): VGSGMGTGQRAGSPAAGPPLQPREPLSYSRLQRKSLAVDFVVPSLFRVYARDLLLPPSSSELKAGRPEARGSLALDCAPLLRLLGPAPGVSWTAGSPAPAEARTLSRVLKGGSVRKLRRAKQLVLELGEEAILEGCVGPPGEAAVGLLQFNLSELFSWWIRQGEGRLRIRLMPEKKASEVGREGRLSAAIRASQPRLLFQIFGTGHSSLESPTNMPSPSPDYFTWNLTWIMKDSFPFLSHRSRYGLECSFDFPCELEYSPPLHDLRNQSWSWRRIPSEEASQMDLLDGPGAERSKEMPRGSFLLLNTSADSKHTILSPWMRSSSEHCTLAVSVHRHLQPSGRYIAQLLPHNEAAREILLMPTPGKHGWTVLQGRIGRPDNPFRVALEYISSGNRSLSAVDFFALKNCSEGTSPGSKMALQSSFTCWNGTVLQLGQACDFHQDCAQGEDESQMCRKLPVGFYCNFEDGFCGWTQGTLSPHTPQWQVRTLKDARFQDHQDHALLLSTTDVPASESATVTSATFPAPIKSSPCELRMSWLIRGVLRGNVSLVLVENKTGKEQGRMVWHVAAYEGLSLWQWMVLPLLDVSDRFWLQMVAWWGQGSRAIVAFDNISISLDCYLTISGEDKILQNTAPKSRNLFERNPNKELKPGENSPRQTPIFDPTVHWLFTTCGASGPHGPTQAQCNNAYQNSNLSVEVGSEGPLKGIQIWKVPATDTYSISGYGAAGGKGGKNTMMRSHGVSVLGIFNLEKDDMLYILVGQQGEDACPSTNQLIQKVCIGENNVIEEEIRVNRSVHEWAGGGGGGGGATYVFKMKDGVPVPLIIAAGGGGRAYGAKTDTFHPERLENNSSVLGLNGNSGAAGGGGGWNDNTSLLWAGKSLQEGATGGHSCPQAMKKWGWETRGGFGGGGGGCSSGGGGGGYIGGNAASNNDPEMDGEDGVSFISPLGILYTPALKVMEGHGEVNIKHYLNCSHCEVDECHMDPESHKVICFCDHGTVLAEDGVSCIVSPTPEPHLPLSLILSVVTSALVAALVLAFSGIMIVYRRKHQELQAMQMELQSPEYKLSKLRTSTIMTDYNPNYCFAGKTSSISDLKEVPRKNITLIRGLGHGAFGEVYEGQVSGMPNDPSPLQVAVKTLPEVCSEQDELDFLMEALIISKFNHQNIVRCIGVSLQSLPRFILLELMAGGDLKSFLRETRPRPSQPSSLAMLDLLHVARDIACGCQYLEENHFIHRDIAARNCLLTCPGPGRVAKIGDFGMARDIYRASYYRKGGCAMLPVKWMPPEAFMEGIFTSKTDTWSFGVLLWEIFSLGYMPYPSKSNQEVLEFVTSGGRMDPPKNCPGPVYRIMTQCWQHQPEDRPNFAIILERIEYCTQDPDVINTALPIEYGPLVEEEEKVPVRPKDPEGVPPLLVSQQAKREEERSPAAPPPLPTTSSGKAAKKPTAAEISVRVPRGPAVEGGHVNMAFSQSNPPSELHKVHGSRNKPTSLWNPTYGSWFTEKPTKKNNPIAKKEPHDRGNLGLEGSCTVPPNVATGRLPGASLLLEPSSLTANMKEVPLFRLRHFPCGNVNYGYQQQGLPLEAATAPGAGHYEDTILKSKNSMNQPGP

Row | IC50 ([1]; Table B1) [nM] | ALK % of inhibition at a concentration of 500 nM or 1 mM [2, 6] [%] | IC50 ([3]; Table B1) [nM] | IC50 ([4]; Table B1) [nM] | IC50 ([5]; Table B1) [nM] | IC50 [1, 8] [nM] | ALK % of inhibition at a concentration of 500 nM or 1 mM [2, 9] [%] | IC50 [3, 10] [nM] | IC50 [4] [nM] | IC50 [5, 11] [nM] | SMILES | other results
1 | 20 | 10 | 279 | 607 | > 10000 | – | – | – | – | – | O=C(Nc1ccc2cc1CCc1cncc(c1)Nc1ncc(Cl)c(n1)N2)N[C@H]1CCN(C(=O)c2cc(C3CC3)on2)C1 [Example B270, N-[6-Chloro-2,4,8,18,22-pentaazatetracyclo[14.3.1.1(3,7).1(9,13)]docosa-1(20),3(22),4,6,9(21),10,12,16,18-nonaen-12-yl]-N′-{(3S)-1-[(5-cyclopropylisoxazol-3-yl)carbonyl]pyrrolidin-3-yl}urea bis(trifluoroacetate)] | –
2 | 2.1 | – | 4.1 | 7.8 | 67 | – | – | – | – | – | N#Cc1cccc(NC(=O)Nc2ccc3cc2CCc2cccc(c2)Nc2ncc(Cl)c(n2)N3)c1 [Example B95, N-[6-Chloro-2,4,8,22-tetraazatetracyclo[14.3.1.1(3,7).1(9,13)]docosa-1(20), 3(22),4,6,9(21),10,12,16,18-nonaen-12-yl]-N′-(3-cyanophenyl)urea trifluoroacetate] | IC50 [2, 7]: > 1000 nM
3 | 2.1 | 26 | 1 | 7 | 14 | – | – | – | – | – | NS(=O)(=O)N1CCC(NC(=O)Nc2ccc3cc2CCc2cccc(c2)Nc2ncc(Cl)c(n2)N3)CC1 [Example B183, 4-[({[6-Chloro-2,4,8,22-tetraazatetracyclo[14.3.1.1(3,7).1(9,13)]docosa-1(20),3(22),4,6,9(21),10,12,16,18-nonaen-12-yl]amino}carbonyl)amino]piperidine-1-sulfonamide trifluoroacetate] | –
4 | 5.7 | 19 | 7.8 | 25 | 60 | – | – | – | – | – | O=C(Nc1ccc2cc1CCc1cccc(c1)Nc1ncc(Cl)c(n1)N2)N[C@@H]1CCN(C(=O)c2ccccc2)C1 [Example B176, N-[(3R)-1-Benzoylpyrrolidin-3-yl]-N′-[6-chloro-2,4,8,22-tetraazatetracyclo[14.3.1.1(3,7).1(9,13)]docosa-1(20),3(22),4,6,9(21),10,12,16,18-nonaen-12-yl]urea trifluoroacetate] | –
5 | 11 | 0 | 11 | 64 | 331 | – | – | – | – | – | O=C(Nc1ccc2cc1CCc1cccc(c1)Nc1ncc(Cl)c(n1)N2)Nc1ccccc1-c1ccccc1 [Example B130, N-Biphenyl-2-yl-N′-[6-chloro-2,4,8,22-tetraazatetracyclo[14.3.1.1(3,7).1(9,13)]docosa-1(20),3(22),4,6,9(21),10,12,16,18-nonaen-12-yl]urea trifluoroacetate] | –
6 | 1.2 | – | 0.73 | 3.2 | 10 | – | – | – | – | – | N#Cc1ccc(C(=O)Nc2ccc3cc2CCc2cccc(c2)Nc2ncc(Cl)c(n2)N3)cc1 [Example B64, N-[6-Chloro-2,4,8,22-tetraazatetracyclo[14.3.1.1(3,7).1(9,13)]docosa-1(20), 3(22),4,6,9(21),10,12,16,18-nonaen-12-yl]-4-cyanobenzamide trifluoroacetate] | IC50 [2, 7]: 150 nM
7 | 7 | 5.8 | 11 | 24 | 102 | – | – | – | – | – | O=C(Nc1ccc2cc1CCc1cccc(c1)Nc1ncc(Cl)c(n1)N2)N[C@H]1CCN(C(=O)c2ccccn2)C1 [Example B233, N-[6-Chloro-2,4,8,22-tetraazatetracyclo[14.3.1.1(3,7).1(9,13)]docosa-1(20),3(22),4,6,9(21),10,12,16,18-nonaen-12-yl]-N′-[(3S)-1-(pyridin-2-ylcarbonyl)pyrrolidin-3-yl]urea bis(trifluoroacetate)] | –
8 | 4.2 | 23 | 13 | 21 | 77 | – | – | – | – | – | CN1CCCC1CCNC(=O)Nc1ccc2cc1CCc1cccc(c1)Nc1ncc(Cl)c(n1)N2 (centres unmarked) [Example B256, N-[6-Chloro-2,4,8,22-tetraazatetracyclo[14.3.1.1(3,7).1(9,13)]docosa-1(20),3(22),4,6,9(21),10,12,16,18-nonaen-12-yl]-N′-[2-(1-methylpyrrolidin-2-yl)ethyl]urea bis(trifluoroacetate)] | –
9 | 2.1 | – | 2.6 | 9.7 | 44 | – | – | – | – | – | O=C(Nc1ccc2cc1CCc1cccc(c1)Nc1ncc(Cl)c(n1)N2)c1ccco1 [Example B33, N-[6-Chloro-2,4,8,22-tetraazatetracyclo[14.3.1.1(3,7).1(9,13)]docosa-1(20), 3(22),4,6,9(21),10,12,16,18-nonaen-12-yl]-2-furamide trifluoroacetate] | IC50 [2, 7]: 820 nM
10 | 2.1 | – | 2.7 | 13 | 28 | – | – | – | – | – | Cc1ccccc1NC(=O)Nc1ccc2cc1CCc1cccc(c1)Nc1ncc(Cl)c(n1)N2 [Example B91, N-[6-Chloro-2,4,8,22-tetraazatetracyclo[14.3.1.1(3,7).1(9,13)]docosa-1(20), 3(22),4,6,9(21),10,12,16,18-nonaen-12-yl]-N′-(2-methylphenyl)urea trifluoroacetate] | IC50 [2, 7]: > 1000 nM

The remaining lines, values behind:

Row | SMILES | IC50 ([1]; Table B1) [nM] | ALK % of inhibition at a concentration of 500 nM or 1 mM [2, 6] [%] | IC50 ([3]; Table B1) [nM] | IC50 ([4]; Table B1) [nM] | IC50 ([5]; Table B1) [nM] | IC50 [1, 8] [nM] | ALK % of inhibition at a concentration of 500 nM or 1 mM [2, 9] [%] | IC50 [3, 10] [nM] | IC50 [4] [nM] | IC50 [5, 11] [nM] | other results
11 | O=C(CC1CCN(S(=O)(=O)c2ccco2)CC1)Nc1ccc2cc1CCc1cncc(c1)Nc1ncc(Cl)c(n1)N2 [Example A201, N-[6-Chloro-2,4,8,18,22-pentaazatetracyclo[14.3.1.1(3,7).1(9,13)]docosa-1(20),3(22),4,6,9(21),10,12,16,18-nonaen-12-yl]-2-[1-(2-furylsulfonyl)piperidin-4-yl]acetamide bis(trifluoroacetate)] | – | – | – | – | – | 9.3 | 31 | 100 | 150 | > 200 | –
12 | Cn1cnc(S(=O)(=O)N2CCC(CC(=O)Nc3ccc4cc3CCc3cncc(c3)Nc3ncc(Cl)c(n3)N4)CC2)c1 [Example A229, N-[6-Chloro-2,4,8,18,22-pentaazatetracyclo[14.3.1.1(3,7).1(9,13)]docosa-1(20),3(22),4,6,9(21),10,12,16,18-nonaen-12-yl]-2-{1-[(1-methyl-1H-imidazol-4-yl)sulfonyl]piperidin-4-yl}acetamide bis(trifluoroacetate)] | – | – | – | – | – | 8 | 55 | 75 | 120 | > 400 | –
13 | O=C(CC1CCN(C(=O)NC2CCCC2)CC1)Nc1ccc2cc1CCc1cccc(c1)Nc1ncc(Cl)c(n1)N2 [Example A64, 4-(2-{[6-Chloro-2,4,8,22-tetraazatetracyclo[14.3.1.1(3,7).1(9,13)]docosa-1(20),3(22),4,6,9(21),10,12,16,18-nonaen-12-yl]amino}-2-oxoethyl)-N-cyclopentylpiperidine-1-carboxamide trifluoroacetate] | – | – | – | – | – | 13 | 23 | 6.5 | 23 | 30 | –
14 | CC(C)S(=O)(=O)N1CCC(CC(=O)Nc2ccc3cc2CCc2cncc(c2)Nc2ncc(Cl)c(n2)N3)CC1 [Example A97, N-[6-Chloro-2,4,8,18,22-pentaazatetracyclo[14.3.1.1(3,7).1(9,13)]docosa-1(20),3(22),4,6,9(21),10,12,16,18-nonaen-12-yl]-2-[1-(isopropylsulfonyl)piperidin-4-yl]acetamide bis(trifluoroacetate)] | – | – | – | – | – | 3.9 | 31 | 7.5 | 11 | 34 | –
15 | CC(=O)N1CCC(CC(=O)Nc2ccc3cc2CCc2cncc(c2)Nc2ncc(Cl)c(n2)N3)C1 (centres unmarked) [Example A94, 2-(1-Acetylpyrrolidin-3-yl)-N-[6-chloro-2,4,8,18,22-pentaazatetracyclo[14.3.1.1(3,7).1(9,13)]docosa-1(20),3(22),4,6,9(21),10,12,16,18-nonaen-12-yl]acetamide bis(trifluoroacetate)] | – | – | – | – | – | 21 | 26 | 17 | 32 | 86 | –
16 | O=C(Nc1cc2cc(c1)OCCSc1cccc(c1)Nc1nc(ncc1Cl)N2)c1ccco1 [Example D62, N-[6-Chloro-17-oxa-14-thia-2,4,8,24-tetraazatetracyclo[16.3.1.1(3,7).1(9,13)]tetracosa-1(22),3(24),4,6,9(23),10,12,18,20-nonaen-20-yl]-2-furamide trifluoroacetate] | – | – | – | – | – | – | – | – | – | – | IC50 ([1]; Table D1): 7.3 nM; IC50 ([2]; Table D1, 90 μM ATP): 380 nM; IC50 ([3]; Table D1): 2.1 nM; IC50 ([4]; Table D1): 6.1 nM; IC50 ([5]; Table D1): 18 nM
